# Data published in patent US12052991B2, “Substituted pyridinyloxybenzenes and salts thereof and use thereof as herbicidal agents” (Bayer Aktiengesellschaft, priority 2018, dated 2024).
# Legend:
# Assay type in all cases: in vivo
# Poa annua (POAAN) [1] = experiment: Herbicidal early post-emergence action (Table A3); conditions: 1900 g/ha; scored visually 9 to 12 days after treatment; 100% = plants have died, 0% = like control plants
# Protocol: (§1) Seeds of monocotyledonous and dicotyledonous weed plants were placed in 96-well microtiter plates in quartz sand and grown in a climatized chamber under controlled growth conditions. 5 to 7 days after sowing, the test plants were treated at the cotyledon stage. The compounds according to the invention, formulated in the form of emulsion concentrates (EC), were applied with a water application rate of the equivalent of 2200 liters per hectare. After the test plants had been left to stand in the climatized chamber for 9 to 12 days under optimum growth conditions, the effect of the preparations was scored visually in comparison to untreated controls. For example, 100% activity=the plants have died, 0% activity=like control plants. Tables A1 to A8 below show the effects of selected compounds of the general formula (I) according to Table 1 on various harmful plants and an application rate corresponding to 1900 g/ha, which were obtained by the experimental procedure mentioned above.
# [2] = test system: harmful plants AGSTE, DIPTE, LOLPE, MATCH, POAAN, SETVI, STEME and VERPE; experiment: Herbicidal early post-emergence action, summary of Tables A1-A8; conditions: application rate of 1900 g of active ingredient per hectare; summary in words
# Protocol: as §1, with “plants.” for “plants. Tables A1 to A8 below show the effects of selected compounds of the general formula (I) according to Table 1 on various harmful plants and an application rate corresponding to 1900 g/ha, which were obtained by the experimental procedure mentioned above.”
# Tables A1 to A8 below show the effects of selected compounds of the general formula (I) according to Table 1 on various harmful plants and an application rate corresponding to 1900 g/ha, which were obtained by the experimental procedure mentioned above.
# As the results of Tables A1-A8 show, compounds no.
# Agrostis tenuis (AGSTE) = experiment: Herbicidal early post-emergence action (Table A1); conditions: 1900 g/ha; scored visually 9 to 12 days after treatment; 100% = plants have died, 0% = like control plants
# Protocol: as §1
# [3] = test system: Echinochloa crus-galli (ECHCG); experiment: Herbicidal post-emergence action (Table B1); conditions: 1280 g/ha; rated visually after about 3 weeks; 100% = plants have died, 0% = like control plants
# Outline: (§2)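 Weeds grown from seed in sandy loam in the greenhouse were sprayed at the one-leaf stage, 2 to 3 weeks after sowing, with WP or EC formulations in water plus 0.5% additive at 600 L/ha. Rates corresponded to 1280 or 320 g/ha; damage was rated visually versus untreated controls after about 3 weeks.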
# Poa annua (POAAN) [4] = experiment: Herbicidal post-emergence action (Table B3); conditions: rated visually after about 3 weeks, 100% = plants have died, 0% = like control plants
# Outline: as §2
# [5] = test system: Abutilon theophrasti (ABUTH); experiment: Herbicidal post-emergence action (Table B5); conditions: rated visually after about 3 weeks, 100% = plants have died, 0% = like control plants
# Outline: as §2
# [6] = test system: Amaranthus retroflexus (AMARE); experiment: Herbicidal post-emergence action (Table B6); conditions: dosage 1280 g/ha; visual rating about 3 weeks after treatment; 100% = plants have died, 0% = like control plants
# Outline: as §2
# [7] = test system: Matricaria inodora (MATIN); experiment: Herbicidal post-emergence action (Table B7); conditions: rated visually after about 3 weeks, 100% = plants have died, 0% = like control plants
# Outline: as §2
# Stellaria media (STEME) [8] = experiment: Herbicidal post-emergence action (Table B8); conditions: visual rating about 3 weeks after treatment, 100% = plants have died, 0% = like control plants
# Outline: as §2
# [9] = test system: Alopecurus myosuroides (ALOMY); experiment: Herbicidal post-emergence action (Table B9); conditions: rated visually after about 3 weeks, 100% = plants have died, 0% = like control plants
# Outline: as §2
# Bassia scoparia (KCHSC) [10] = experiment: Herbicidal post-emergence action (Table B11); conditions: dosage 1280 g/ha; visual rating about 3 weeks after treatment; 100% = plants have died, 0% = like control plants
# Outline: as §2
# Veronica persica (VERPE) [11] = experiment: Herbicidal post-emergence action (Table B12); conditions: visual rating about 3 weeks after treatment, 100% = plants have died, 0% = like control plants
# Outline: as §2
# [12] = test system: Echinochloa crus-galli (ECHCG); experiment: Herbicidal pre-emergence action, test C (Table C1); conditions: dosage 1280 g/ha; visual scoring after about 3 weeks; 100% = plants have died, 0% = like control plants
# Outline: (§3)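 Sandy loam, doubly sown pots; surface spray pre-emergence; 1280 or 320 g/ha; 0.5% additive; 600 L/ha. Greenhouse, ~3 weeks. Visual % vs untreated.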
# Poa annua (POAAN) [13] = experiment: Herbicidal pre-emergence action, test C (Table C3); conditions: visual scoring after about 3 weeks, 100% = plants have died, 0% = like control plants
# Outline: as §3
# Setaria viridis (SETVI) = experiment: Herbicidal pre-emergence action, test C (Table C4); conditions: dosage 1280 g/ha; visual scoring after about 3 weeks; 100% = plants have died, 0% = like control plants
# Outline: as §3
# [14] = test system: Abutilon theophrasti (ABUTH); experiment: Herbicidal pre-emergence action, test C (Table C5); conditions: visual scoring after about 3 weeks, 100% = plants have died, 0% = like control plants
# Outline: as §3
# [15] = test system: Amaranthus retroflexus (AMARE); experiment: Herbicidal pre-emergence action, test C (Table C6); conditions: visual scoring after about 3 weeks, 100% = plants have died, 0% = like control plants
# Outline: as §3
# [16] = test system: Matricaria inodora (MATIN); experiment: Herbicidal pre-emergence action, test C (Table C7); conditions: visual scoring after about 3 weeks, 100% = plants have died, 0% = like control plants
# Outline: as §3
# Stellaria media (STEME) [17] = experiment: Herbicidal pre-emergence action, test C (Table C8); conditions: visual scoring after about 3 weeks, 100% = plants have died, 0% = like control plants
# Outline: as §3
# [18] = test system: Alopecurus myosuroides (ALOMY); experiment: Herbicidal pre-emergence action, test C (Table C9); conditions: visual scoring after about 3 weeks, 100% = plants have died, 0% = like control plants
# Outline: as §3
# [19] = test system: Digitaria sanguinalis (DIGSA); experiment: Herbicidal pre-emergence action, test C (Table C10); conditions: dosage 1280 g/ha; visual scoring after about 3 weeks; 100% = plants have died, 0% = like control plants
# Outline: as §3
# Bassia scoparia (KCHSC) [20] = experiment: Herbicidal pre-emergence action, test C (Table C11); conditions: dosage 1280 g/ha, visual scoring vs untreated controls
# Outline: as §3
# Veronica persica (VERPE) [21] = experiment: Herbicidal pre-emergence action, test C (Table C12); conditions: visual scoring vs untreated controls
# Outline: as §3
# [22] = test system: harmful plants ABUTH, AMARE, ECHCG, LOLRI, MATIN, POAAN, SETVI, STEME, ALOMY, DIGSA, KCHSC and VERPE; experiment: Herbicidal post-emergence action, summary of Tables B1-B12; conditions: application rate of 1280 or 320 g of active ingredient per hectare; summary in words
# Outline: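 Greenhouse weeds in sandy loam treated post-emergence at the one-leaf stage, 2–3 weeks after sowing, with WP or EC formulations sprayed with 0.5% additive at 600 L/ha water, 1280 or 320 g/ha. Damage rated visually after about 3 weeks versus untreated controls (0% = like control, 100% = dead).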
# [23] = test system: harmful plants ABUTH, AMARE, ECHCG, LOLRI, MATIN, POAAN, SETVI, STEME, ALOMY, DIGSA, KCHSC and VERPE; experiment: Herbicidal pre-emergence action (test C), summary of Tables C1-C12; conditions: application rate of 1280 or 320 g of active ingredient per hectare; summary in words
# Outline: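 Pre-emergence pot test in sandy loam: WP or EC formulations were sprayed onto the covering soil with 0.5% additive at 600 L/ha water, at 1280 or 320 g/ha. Plants were kept in the greenhouse, and activity was rated visually about 3 weeks later as % versus untreated controls (100% = dead).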
smiles,measurement,setting,value
COc1ccc(-c2cc(C(F)F)no2)c(Oc2ncc(Cl)cc2F)c1 [Example 1-37],Early post-emergence effect against Poa annua (POAAN),Poa annua (POAAN) [1],80%
same,herbicidal activity against the harmful plants of Tables A1-A8 in early post-emergence treatment,[2],very good herbicidal activity
Fc1ccc(Oc2cccc(F)c2-c2cc(C(F)F)no2)nc1 [Example 1-41],Early post-emergence effect against Agrostis tenuis (AGSTE),Agrostis tenuis (AGSTE),80%
same,Early post-emergence effect against Poa annua (POAAN),Poa annua (POAAN) [1],100%
same,herbicidal activity against the harmful plants of Tables A1-A8 in early post-emergence treatment,[2],very good herbicidal activity
CSc1cccc(Oc2ccc(Cl)cn2)c1-c1cc(C(F)F)no1 [Example 1-56],Early post-emergence effect against Agrostis tenuis (AGSTE),Agrostis tenuis (AGSTE),100%
same,Early post-emergence effect against Poa annua (POAAN),Poa annua (POAAN) [1],100%
same,herbicidal activity against the harmful plants of Tables A1-A8 in early post-emergence treatment,[2],very good herbicidal activity
Fc1cc(Cl)cnc1Oc1ccccc1-c1ccc(C(F)(F)F)cn1 [Example 1-66],Early post-emergence effect against Agrostis tenuis (AGSTE),Agrostis tenuis (AGSTE),100%
same,Early post-emergence effect against Poa annua (POAAN),Poa annua (POAAN) [1],80%
same,herbicidal activity against the harmful plants of Tables A1-A8 in early post-emergence treatment,[2],very good herbicidal activity
Fc1cc(Cl)cnc1Oc1ccccc1-c1cc(C(F)(F)F)ccn1 [Example 1-69],Early post-emergence effect against Agrostis tenuis (AGSTE),Agrostis tenuis (AGSTE),100%
same,Early post-emergence effect against Poa annua (POAAN),Poa annua (POAAN) [1],100%
same,herbicidal activity against the harmful plants of Tables A1-A8 in early post-emergence treatment,[2],very good herbicidal activity
FC(F)(F)c1ccnc(-c2ccccc2Oc2ccc(Cl)cn2)c1 [Example 1-70],Early post-emergence effect against Agrostis tenuis (AGSTE),Agrostis tenuis (AGSTE),100%
same,Early post-emergence effect against Poa annua (POAAN),Poa annua (POAAN) [1],100%
same,herbicidal activity against the harmful plants of Tables A1-A8 in early post-emergence treatment,[2],very good herbicidal activity
FC(F)(F)c1cncc(-c2ccccc2Oc2ccc(Cl)cn2)c1 [Example 1-73],Early post-emergence effect against Agrostis tenuis (AGSTE),Agrostis tenuis (AGSTE),100%
same,Early post-emergence effect against Poa annua (POAAN),Poa annua (POAAN) [1],80%
same,herbicidal activity against the harmful plants of Tables A1-A8 in early post-emergence treatment,[2],very good herbicidal activity
Cc1cc(C)c(-c2cc(C(F)F)no2)c(Oc2ccccn2)c1 [Example 1-86],Post-emergence action against Echinochloa crus-galli (ECHCG),[3],100%
same,Post-emergence action against Poa annua (POAAN),Poa annua (POAAN) [4]; 320 g/ha,100%
same,Post-emergence action against Poa annua (POAAN),Poa annua (POAAN) [4]; 1280 g/ha,100%
same,Post-emergence action against Abutilon theophrasti (ABUTH),[5]; 320 g/ha,100%
same,Post-emergence action against Abutilon theophrasti (ABUTH),[5]; 1280 g/ha,100%
same,Post-emergence action against Amaranthus retroflexus (AMARE),[6],100%
same,Post-emergence action against Matricaria inodora (MATIN),[7]; 320 g/ha,100%
same,Post-emergence action against Matricaria inodora (MATIN),[7]; 1280 g/ha,100%
same,Post-emergence action against Stellaria media (STEME),Stellaria media (STEME) [8]; dosage 320 g/ha,100%
same,Post-emergence action against Stellaria media (STEME),Stellaria media (STEME) [8]; dosage 1280 g/ha,100%
same,Post-emergence action against Alopecurus myosuroides (ALOMY),[9]; 320 g/ha,100%
same,Post-emergence action against Alopecurus myosuroides (ALOMY),[9]; 1280 g/ha,100%
same,Post-emergence action against Bassia scoparia (KCHSC),Bassia scoparia (KCHSC) [10],90%
same,Post-emergence action against Veronica persica (VERPE),Veronica persica (VERPE) [11]; dosage 320 g/ha,100%
same,Post-emergence action against Veronica persica (VERPE),Veronica persica (VERPE) [11]; dosage 1280 g/ha,100%
same,Pre-emergence action against Echinochloa crus-galli (ECHCG),[12],100%
same,Pre-emergence action against Poa annua (POAAN),Poa annua (POAAN) [13]; dosage 320 g/ha,90%
same,Pre-emergence action against Poa annua (POAAN),Poa annua (POAAN) [13]; dosage 1280 g/ha,100%
same,Pre-emergence action against Setaria viridis (SETVI),Setaria viridis (SETVI),100%
same,Pre-emergence action against Abutilon theophrasti (ABUTH),[14]; dosage 320 g/ha,90%
same,Pre-emergence action against Abutilon theophrasti (ABUTH),[14]; dosage 1280 g/ha,100%
same,Pre-emergence action against Amaranthus retroflexus (AMARE),[15]; dosage 320 g/ha,100%
same,Pre-emergence action against Amaranthus retroflexus (AMARE),[15]; dosage 1280 g/ha,100%
same,Pre-emergence action against Matricaria inodora (MATIN),[16]; dosage 320 g/ha,90%
same,Pre-emergence action against Matricaria inodora (MATIN),[16]; dosage 1280 g/ha,100%
same,Pre-emergence action against Stellaria media (STEME),Stellaria media (STEME) [17]; dosage 320 g/ha,90%
same,Pre-emergence action against Stellaria media (STEME),Stellaria media (STEME) [17]; dosage 1280 g/ha,100%
same,Pre-emergence action against Alopecurus myosuroides (ALOMY),[18]; dosage 320 g/ha,90%
same,Pre-emergence action against Alopecurus myosuroides (ALOMY),[18]; dosage 1280 g/ha,90%
same,Pre-emergence action against Digitaria sanguinalis (DIGSA),[19],100%
same,Pre-emergence action against Bassia scoparia (KCHSC),Bassia scoparia (KCHSC) [20],100%
same,Pre-emergence action against Veronica persica (VERPE),Veronica persica (VERPE) [21]; dosage 320 g/ha,90%
same,Pre-emergence action against Veronica persica (VERPE),Veronica persica (VERPE) [21]; dosage 1280 g/ha,100%
same,herbicidal activity against the harmful plants of Tables B1-B12 in post-emergence treatment,[22],very good herbicidal activity
same,herbicidal activity against the harmful plants of Tables C1-C12 in pre-emergence treatment,[23],very good herbicidal activity
Cc1cc(F)c(-c2cc(C(F)F)on2)c(Oc2ncc(Cl)cc2F)c1 [Example 1-87],Early post-emergence effect against Agrostis tenuis (AGSTE),Agrostis tenuis (AGSTE),80%
same,Early post-emergence effect against Poa annua (POAAN),Poa annua (POAAN) [1],80%
same,herbicidal activity against the harmful plants of Tables A1-A8 in early post-emergence treatment,[2],very good herbicidal activity
Cc1ccc(-c2ccccc2Oc2ncc(Cl)cc2F)nc1 [Example 1-106],Early post-emergence effect against Poa annua (POAAN),Poa annua (POAAN) [1],80%
same,herbicidal activity against the harmful plants of Tables A1-A8 in early post-emergence treatment,[2],very good herbicidal activity
